According to patent publication US20230141034A1, “ADAMANTANE-1-CARBONYL THIOUREA, AS P2X RECEPTOR ANTAGONIST” (COMSATS UNIVERSITY ISLAMABAD, priority 2021, published 2023):

How the values were obtained:
[1] = MTT cytotoxicity assay, HeLa cell line; type: cell-based; conditions: human, HeLa cells, final concentration of 50 μM
Description: (§1) Cellular safety profiling of adamantane thioureas were done through MTT assay. All compounds were analyzed for toxicity at final concentration of 50 μM. […] Toxicity was determined against two cancer cell lines including human 1321N1 Astrocytoma cell line, HeLa cell line and a normal HEK-293 cell line.
(§2) c. Cell Viability Assay (MTT Assay)
(§3) After 24 h of incubation at 37° C. in CO2 incubator, culture media will be replaced with serum-free media along with test compounds and re-incubate. After 24 h, media will be removed and add 100 μL of MTT reagent (0.5-5 mg/mL) and will be incubated for a further 4 h, at 37° C. Absorbance will be measured at 570 and 630 nm to calculate cell viability.

[2] = MTT cytotoxicity assay, human 1321N1 astrocytoma cell line; type: cell-based; conditions: human, 1321N1 astrocytoma cells, final concentration of 50 μM
Description: as §1, §2, §3

h-P2X7 [3] = target: T1, h-P2X7 (Homo sapiens, UniProt Q99572); test: BzATP induced Ethidium Bromide dye-uptake assay (pore formation); type: cell-based; parameters: expressed in transfected cells; host or cells: human 1321N1 astrocytoma cells
T1 sequence (Q99572 1-595): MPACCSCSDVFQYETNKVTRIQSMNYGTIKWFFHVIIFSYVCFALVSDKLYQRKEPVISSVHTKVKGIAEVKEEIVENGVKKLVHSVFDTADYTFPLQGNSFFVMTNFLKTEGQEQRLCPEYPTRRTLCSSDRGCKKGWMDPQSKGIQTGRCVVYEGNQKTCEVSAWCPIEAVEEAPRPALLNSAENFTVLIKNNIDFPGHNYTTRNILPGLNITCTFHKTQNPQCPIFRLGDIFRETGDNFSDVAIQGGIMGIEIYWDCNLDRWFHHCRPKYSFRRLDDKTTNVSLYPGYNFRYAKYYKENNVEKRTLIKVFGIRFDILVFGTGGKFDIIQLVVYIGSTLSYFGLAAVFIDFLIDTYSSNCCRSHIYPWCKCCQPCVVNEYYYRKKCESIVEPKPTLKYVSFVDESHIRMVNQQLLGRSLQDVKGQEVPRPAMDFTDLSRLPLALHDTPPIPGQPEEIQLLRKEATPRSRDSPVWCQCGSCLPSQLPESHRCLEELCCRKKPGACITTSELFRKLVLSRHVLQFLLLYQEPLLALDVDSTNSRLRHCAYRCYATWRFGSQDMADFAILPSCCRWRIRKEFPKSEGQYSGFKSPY
From the text: This is a specific assay to access the activities of P2X7R. Prolong exposure of P2X7R leads to pore formation that results intake of large molecular weight dye through this pore. An inhibitor of P2X7R inhibits this pore formation that confirms the inhibitory potential of compounds.
e. Ethidium Bromide Dye-Uptake Assay for P2X7 Receptors: (Pore Formation)
Human astrocytoma 1321N1 cells stably expressing P2X7 receptors will be seeded in the black wall, clear bottom and poly-D-lysine coated 96 wells plate at a cell density of 20,000 cells/well. After 24 h of incubation, culture medium will be removed, and wash the cells with dye uptake buffer. Cells will be treated with ethidium bromide with the subsequent addition of different concentrations of Bz-ATP to 96 wells plate in triplicate format. […] For screening of P2X7 receptor antagonists, cells will be treated with different concentrations of test compounds for 15 min at 37° C. before the addition of Bz-ATP.

h-P2X7 [4] = target: T1, h-P2X7; test: Ca2+ flux assay h-P2X7; conditions: read-out: h-P2X7 IC50 ± SEM; Ca2+ flux, n = 3
Description: (§4) Compounds were initially analyzed at a final concentration of about 50 μM and percentage of inhibition was calculated.
(§5) Calcium Mobilization Assay to Measure P2X Receptors Response Cell Culture: P2X receptors functions can be analyzed from ATP-induced increase in cytosolic Ca^2+ concentration. Two Ca^2+ chelating dyes, Fura-2 AM and Fluo-4 AM can be used to determine the intracellular Ca^2+ concentration through a fluorescent imaging micro-titer plate reader (BMG Labtech: FLUOstar Galaxy®). Non-transfected human 1321N1 astrocytoma cells, as well as P2X receptors transfected human 1321N1 astrocytoma cells will be cultured in T-75 cm^2 cell culture flask having appropriate cell culture growth media; Dulbecco's Modified Eagle's medium (DMEM) supplemented with 10% fetal bovine serum (FBS), 75 μg/mL of Hygromycin B or human P2X receptors transfected cell lines and 1% pen-strep (antibiotics). Cells will be incubated at 37° C. in 5% CO2 incubator until 80 to 90% cell confluency will be achieved. Cells will be maintained in an exponential growth phase throughout the experiment and closely monitored for contamination.
Measurement of Ca^2+ Flux
(§6) When 1321N1 cells will reach 80 to 90% of confluency, cells will be harvested from T-75 cm^2 flask by trypsinization. After washing the cells with phosphate buffer saline (PBS), cells will be seeded at a density of 20,000 cells/well in black, clear bottom, poly-D-lysine coated 96 well plate. After 16 to 24 h, cell culture media will be removed and add Hank's balanced salt solution (HBSS) containing 3 μM Ca^2+ chelating dyes Fura-2 AM or Fluo-4 AM. After 1 h of incubation at 23° C., the loading dye solution will be removed, and added seven to eight dilutions of test compounds in triplicate format. ATP (at a concentration value of EC80) or buffer will be added and measured the excitation and emission at 340/520 nm and 380/520 nm through FLUOStar Galaxy®. Assay volume for the experiment will be 200 μL. IC50 and EC50 values will be calculated by PRISM 5.0 (GrapgPad, San Diego, Calif., USA) through non-linear regression analysis.

h-P2X5 = h-P2X5 (Homo sapiens, UniProt Q93086); test: Ca2+ flux assay h-P2X5; conditions: read-out: h-P2X5 % Inhibition
Description: as §4, §5
Measurement of Ca^2+ Flux
as §6

h-P2X7 [5] = target: T1, h-P2X7; test: Mode of receptor inhibition, BzATP dose-response curve at h-P2X7R; type: cell-based; parameters: expressed in transfected cells; host or cells: human 1321N1 astrocytoma cells; conditions: h-P2X7R expressed cell line, different dilutions of compound
Description: Different dilutions of compounds were administered to receptors expressed cell line.

h-P2X2 = target: T2, h-P2X2 (Homo sapiens, UniProt Q9UBL9); test: Ca2+ flux assay h-P2X2; conditions: read-out: h-P2X2 % Inhibition
T2 sequence (Q9UBL9 1-471): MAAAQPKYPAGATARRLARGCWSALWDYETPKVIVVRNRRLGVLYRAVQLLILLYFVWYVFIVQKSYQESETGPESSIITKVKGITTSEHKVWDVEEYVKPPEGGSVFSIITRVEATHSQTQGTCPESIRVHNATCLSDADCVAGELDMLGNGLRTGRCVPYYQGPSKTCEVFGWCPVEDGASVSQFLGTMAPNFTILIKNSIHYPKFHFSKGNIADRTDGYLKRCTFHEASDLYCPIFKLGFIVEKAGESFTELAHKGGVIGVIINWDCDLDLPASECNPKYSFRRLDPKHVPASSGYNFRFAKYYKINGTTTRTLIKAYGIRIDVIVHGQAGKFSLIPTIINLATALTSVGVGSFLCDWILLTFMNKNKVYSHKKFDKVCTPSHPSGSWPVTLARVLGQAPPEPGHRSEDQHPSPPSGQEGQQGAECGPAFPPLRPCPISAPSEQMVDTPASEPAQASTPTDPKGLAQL
Description: as §4, §5
Measurement of Ca^2+ Flux
as §6

[6] = MTT cytotoxicity assay, HEK-293 cell line; type: cell-based; conditions: human, HEK-293 cells, final concentration of 50 μM
Description: as §1, §2, §3

h-P2X4 = target: T3, h-P2X4 (Homo sapiens, UniProt Q99571); test: Ca2+ flux assay h-P2X4; conditions: read-out: h-P2X4 % Inhibition
T3 sequence (Q99571 1-388): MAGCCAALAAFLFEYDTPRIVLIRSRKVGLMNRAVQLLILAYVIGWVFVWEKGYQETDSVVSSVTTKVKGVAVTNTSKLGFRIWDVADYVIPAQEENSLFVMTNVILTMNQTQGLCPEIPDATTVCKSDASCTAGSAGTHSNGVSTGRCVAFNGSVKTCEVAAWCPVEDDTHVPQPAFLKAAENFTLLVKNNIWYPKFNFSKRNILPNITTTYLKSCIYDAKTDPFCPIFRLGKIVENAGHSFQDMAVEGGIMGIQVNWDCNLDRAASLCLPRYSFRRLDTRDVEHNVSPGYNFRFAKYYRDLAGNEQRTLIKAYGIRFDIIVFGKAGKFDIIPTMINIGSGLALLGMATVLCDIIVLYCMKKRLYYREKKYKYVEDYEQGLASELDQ
Description: as §4, §5
Measurement of Ca^2+ Flux
as §6

Chain of h-P2X5 (Q93086 whole entry): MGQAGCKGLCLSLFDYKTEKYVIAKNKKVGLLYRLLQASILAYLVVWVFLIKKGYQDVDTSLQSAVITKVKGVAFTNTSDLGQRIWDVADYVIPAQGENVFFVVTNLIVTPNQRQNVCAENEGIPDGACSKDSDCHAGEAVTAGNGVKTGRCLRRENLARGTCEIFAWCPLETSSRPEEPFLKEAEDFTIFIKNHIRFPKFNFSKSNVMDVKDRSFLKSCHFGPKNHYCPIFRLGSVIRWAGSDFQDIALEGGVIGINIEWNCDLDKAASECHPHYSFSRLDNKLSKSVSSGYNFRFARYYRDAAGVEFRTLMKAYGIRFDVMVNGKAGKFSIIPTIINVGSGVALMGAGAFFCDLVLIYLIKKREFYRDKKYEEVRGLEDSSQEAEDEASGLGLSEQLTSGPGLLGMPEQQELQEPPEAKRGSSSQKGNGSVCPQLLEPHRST

O=C(NC(=S)Nc1cccc2cccnc12)C12CC3CC(CC(C3)C1)C2 [Io, N-(quinolin-8-ylcarbamothioyl)adamantane-1-carboxamide]
cytotoxicity at 24 h, 50 µM [1]: 6.22%
cytotoxicity at 24 h, 50 µM [2]: 9.12%
Emax at 20 µM (h-P2X7 [3]; read-out: Emax % (at 20 μM inhibitor concentration), BzATP induced Ethidium Bromide dye uptake, 20 μM inhibitor concentration, BzATP without inhibitor = 100): 70%
IC50 (h-P2X7 [3]; serial dilution curves, read-out: IC50 ± SEM, BzATP induced Ethidium Bromide dye uptake): 0.136 ± 0.02 µM
IC50 (h-P2X7 [4]): 0.073 ± 0.04 µM
inhibition at 50 µM (h-P2X5): 31.5%
mechanism of receptor inhibition (h-P2X7 [5]): negative allosteric modulators
inhibition at 50 µM (h-P2X2): 15.3%
cytotoxicity at 24 h, 50 µM [6]: 17.6%
inhibition at 50 µM (h-P2X4): 25.1%
